# Assay results taken from patent US4472286A, “Perfluoroalkyl anion/perfluoroalkyl cation ion pair complexes” (Ciba-Geigy Corporation, priority 1983, dated 1984).
# Legend:
# [1] = Micellar behavior in distilled water; type: physicochemical
# Protocol: (§1) The products of Examples 1, 2 and 4 were tested for their respective solubility in distilled water.
# [2] = Solubility in water of Rf.Rf complexes and precursor surfactants; type: physicochemical
# Protocol: The following Table 1 illustrates how a selected type of an Rf Rf ion-pair complex differs in its properties from the precursor anionic and cationic fluorochemical surfactants. Besides the differences shown in Table 1 (solubility, melting point, surface tension), Rf Rf ion-pair complexes also differ in many other properties from their precursor surfactants.
# as §1
# [3] = Surface tension of aqueous solutions (ASTM D-1331-56); type: physicochemical; conditions: for Surface tension, anionic surfactant: Table 5, 0.01%
# [4] = background section; cited from earlier work
molecule,measurement,setting,value
"3-(1,1,2,2-tetrahydroperfluorooctylthio)-2-hydroxypropyltrimethylammonium 2-methyl-2-(3-[1,1,2,2-tetrahydroperfluorooctylthio]propanesulfonate [Example 1]",micellar behavior,[1],None
same,solubility in distilled water,[2],5×10^-3 weight %
same,surface tension of concentrated solution,[3]; concentrated solution in distilled water,16.9 dynes/cm
O=S(=O)(O)C(F)(F)C(F)(F)C(F)(F)C(F)(F)C(F)(F)C(F)(F)C(F)(F)C(F)(F)F [FC-95],"Surface tension, anionic surfactant alone","[3]; Table 4, at 0.01% in water",42.2
same,"Surface tension, anionic surfactant",[3],42.2
CCN(CC(=O)O)S(=O)(=O)C(F)(F)C(F)(F)C(F)(F)C(F)(F)C(F)(F)C(F)(F)C(F)(F)C(F)(F)F [FC-128],"Surface tension, anionic surfactant alone","[3]; Table 4, at 0.01% in water",24.7
same,"Surface tension, anionic surfactant",[3],24.7
C[N+](C)(C)CCCNS(=O)(=O)C(F)(F)C(F)(F)C(F)(F)C(F)(F)C(F)(F)C(F)(F)C(F)(F)C(F)(F)F [FC-134],"Surface tension, cationic surfactant alone","[3]; Table 4, at 0.01% in water",17.8
decyltrimethylammonium decyl sulfate,surface tension of aqueous solutions (literature / general knowledge),[4],≥ 22 dynes/cm
